Each structure is given as a SMILES string.

The test system of one test is Target C. In words: RT-qPCR canonical junction panel assay, Target C mRNA. In kind it is cell-based. The conditions noted are these: Table 4, read-out: Target C IC50 (decrease in CJ mRNA levels). A digest of the protocol: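 IC50 is the concentration giving 50% CJ decrease, from a 4-parameter logistic fit of percent response; response derived from ΔΔCt against housekeeper and DMSO over a fixed ΔCt window, with canonical exon-junction qPCR in compound-treated K562 or A673 cells.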

The subject of another test is HTT. In words: HiBiT protein abundance assay, HTT (K562 HiBiT knock-in). In kind it is cell-based, human. The conditions noted are these: HiBiT knock-in K562 cells, 24 hours, top dose 10 μM. A digest of the protocol: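 Luminescence readout: Nano-Glo HiBiT lytic detection after 24 h compound exposure of K562 HiBiT knock-in cells, 10000 cells/well. Dosing 10-pt, 3-fold, top 10 μM final. % response vs untreated parental K562 and DMSO controls; 4PL fit, IC50 = concentration giving 50% protein abundance.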
For orientation: HiBiT is a short tag that completes a luciferase, so light tracks the accessible tagged protein.

For the compound `Cn1cc2cc(-c3ccc4nc(N5CCC(NC6(C)CC6)C5)ccc4n3)c(O)cc2n1` (centres unmarked) [Compound 219], the IC50 with Target C and with HTT was < 100 nM in each case.

For `Cc1nc2cc(O)c(-c3ccc4nc(N5CC[C@@H](NC6CCC6)C5)ccc4n3)cc2o1` [Compound 229], the IC50 in the test on Target C is 100 to 1000 nM; in the test on HTT, < 100 nM.

On to `Cc1nc2cc(O)c(-c3ccc4nc(N5CC[C@H](NC6CCC6)C5)ccc4n3)cc2o1` [Compound 230], for which the IC50 is 100 to 1000 nM in the test on Target C and < 100 nM with HTT.

As for `Cc1nc2cc(O)c(-c3ccc4nc(N5CCC(NC(C)C)C5)ccc4n3)cc2o1` (centres unmarked) [Compound 231], the IC50 with Target C and in the test with HTT was < 100 nM in each case.

Take `Cc1nc2c(C)c(O)c(-c3ccc4nc(N5CCC(NC6CCC6)C5)ccc4n3)cc2o1` (centres unmarked) [Compound 235]: the figures for the IC50 with Target C and in the test on HTT were 100 to 1000 nM and < 100 nM, respectively.

As for `Cc1nc2c(C)c(O)c(-c3ccc4nc(N5CC[C@@H](NC6CCC6)C5)ccc4n3)cc2o1` [Compound 236], the IC50 is 100 to 1000 nM with Target C and < 100 nM with HTT.

Consider `Cc1nc2c(C)c(O)c(-c3ccc4nc(N5CC[C@H](NC6CCC6)C5)ccc4n3)cc2o1` [Compound 237], for which the IC50 in the test with Target C and with HTT was < 100 nM in each case.

Turning to `Cc1cc(-c2ccc3nc(N4CCC(NC(C)(C)C)C4)ccc3n2)nc2cn(C)nc12` (centres unmarked) [Compound 248], the concentration for half-maximal inhibition (IC50) in the test on Target C lay within 1000 to 10000 nM; in the test with HTT, 100 to 1000 nM.

For `Cc1c(O)c(-c2ccc3nc(N4CC[C@@H](NC(C)(C)C)C4)ccc3n2)cc2cn(C)nc12` [Compound 249], the IC50 in the test on Target C and with HTT was < 100 nM in each case.

As to `Cc1c(O)c(-c2ccc3nc(N4CC[C@H](NC(C)(C)C)C4)ccc3n2)cc2cn(C)nc12` [Compound 250], the IC50 in the test with Target C and with HTT was < 100 nM throughout.

As to `COc1c(-c2ccc3nc(N4CCC(NC(C)(C)C)C4)ccc3n2)cc2c[nH]nc2c1C` (centres unmarked) [Compound 251], the IC50 with Target C and with HTT was > 10000 nM in each case.

Take `Cc1cn2nc(-c3ccc4nc(N5CCC(NC6CC6)C5)ccc4n3)c(O)c2c(C)n1` (centres unmarked) [Compound 252]: the IC50 with Target C and in the test on HTT was 100 to 1000 nM each time.

On to `Cc1c(O)c(-c2ccc3nc(N4CCC(NCC5CC5)C4)ccc3n2)cc2cn(C)nc12` (centres unmarked) [Compound 284, 5-(6-{3-[(cyclopropylmethyl)amino]pyrrolidin-1-yl}-1,5-naphthyridin-2-yl)-2,7-dimethylindazol-6-ol], for which the IC50 was 100 to 1000 nM in the test on Target C and < 100 nM in the test on HTT.

On to `Cc1c(O)c(-c2ccc3nc(N4CCC(NC5CCC5)C4)ccc3n2)cc2cn(C)nc12` (centres unmarked) [Compound 288, 5-{6-[3-(cyclobutylamino)pyrrolidin-1-yl]-1,5-naphthyridin-2-yl}-2,7-dimethylindazol-6-ol], for which the IC50 with Target C was 100 to 1000 nM; with HTT it was < 100 nM.

Regarding `Cc1nc2c(F)c(O)c(-c3ccc4nc(N5CCC(NC6CCC6)C5)ccc4n3)cc2o1` (centres unmarked) [Compound 293, 6-{6-[3-(cyclobutylamino)pyrrolidin-1-yl]-1,5-naphthyridin-2-yl}-4-fluoro-2-methyl-1,3-benzoxazol-5-ol], the IC50 with Target C and in the test with HTT was < 100 nM each time.

In the case of `Cn1cc2cc(-c3ccc4nc(N5CCC(NC67CC(C6)C7)C5)ccc4n3)c(O)cc2n1` (centres unmarked) [Compound 297, 5-[6-(3-{bicyclo[1.1.1]pentan-1-ylamino}pyrrolidin-1-yl)-1,5-naphthyridin-2-yl]-2-methylindazol-6-ol], the IC50 in the test on Target C is > 10000 nM; with HTT it was 1000 to 10000 nM.

`Cn1cc2nc(-c3ccc4nc(N5CCC(NC(C)(C)C)C5)ccc4n3)c(O)cc2n1` (centres unmarked) [Compound 298, 5-{6-[3-(tert-butylamino)pyrrolidin-1-yl]-1,5-naphthyridin-2-yl}-2-methylpyrazolo[4,3-b]pyridin-6-ol]: the figures for the IC50 in the test with Target C and with HTT were 100 to 1000 nM and < 100 nM, respectively.

With `Cn1cc2cc(-c3ccc4nc(N5CC[C@H](N[C@H]6C[C@@H](F)C6)C5)ccc4n3)c(O)cc2n1` [Compound 299, 2-methyl-5-{6-[(3S)-3-{[(1s,3s)-3-fluorocyclobutyl]amino}pyrrolidin-1-yl]-1,5-naphthyridin-2-yl}indazol-6-ol], the IC50 in the test on Target C was 1000 to 10000 nM; with HTT, < 100 nM.

Take `Cc1c(O)c(-c2ccc3nc(N4CCC(NC5COC5)C4)ccc3n2)cc2cn(C)nc12` (centres unmarked) [Compound 302, 2,7-dimethyl-5-{6-[3-(oxetan-3-ylamino)pyrrolidin-1-yl]-1,5-naphthyridin-2-yl}Indazol-6-ol]: the 50% inhibitory concentration (IC50) lay in the range of 1000 to 10000 nM in the test with Target C and 100 to 1000 nM with HTT.

As for `Cc1nc2c(C)c(O)c(-c3ccc4nc(N5CCC(NC6(C)CC6)C5)ccc4n3)cc2o1` (centres unmarked) [Compound 309, 2,4-dimethyl-6-(6-{3-[(1-methylcyclopropyl)amino]pyrrolidin-1-yl}-1,5-naphthyridin-2-yl)-1,3-benzoxazol-5-ol], the IC50 in the test with Target C and in the test on HTT was < 100 nM in each case.

For `Cc1nc2c(C)c(O)c(-c3ccc4nc(N5CCC(NC(C)C)C5)ccc4n3)cc2o1` (centres unmarked) [Compound 312, 6-{6-[3-(isopropylamino)pyrrolidin-1-yl]-1,5-naphthyridin-2-yl}-2,4-dimethyl-1,3-benzoxazol-5-ol], the IC50 with Target C and in the test on HTT was < 100 nM throughout.

Regarding `Cn1cc2cc(-c3ccc4nc(N5CCC(NC6CCC6)C5)ccc4n3)c(O)c(F)c2n1` (centres unmarked) [Compound 315, 5-{6-[3-(cyclobutylamino)pyrrolidin-1-yl]-1,5-naphthyridin-2-yl}-7-fluoro-2-methylindazol-6-ol], the IC50 with Target C and in the test on HTT was < 100 nM throughout.

With `Cc1c(O)c(-c2ccc3nc(N4CCC(NC(C)C)C4)ccc3n2)cc2cn(C)nc12` (centres unmarked) [Compound 318, 5-{6-[3-(isopropylamino)pyrrolidin-1-yl]-1,5-naphthyridin-2-yl}-2,7-dimethylindazol-6-ol], the half-inhibitory concentration (IC50) with Target C and in the test with HTT was < 100 nM throughout.

Regarding `Cc1c(O)c(-c2ccc3nc(N4CC[C@H](NC(C)C)C4)ccc3n2)cc2cn(C)nc12` [Compound 320], the IC50 in the test on Target C and in the test on HTT was < 100 nM in each case.

In the case of `Cc1nc2c(F)c(O)c(-c3ccc4nc(N5CCC(NC6(C)CC6)C5)ccc4n3)cc2o1` (centres unmarked) [Compound 325, 4-fluoro-2-methyl-6-(6-{3-[(1-methylcyclopropyl)amino]pyrrolidin-1-yl}-1,5-naphthyridin-2-yl)-1,3-benzoxazol-5-ol], the IC50 with Target C and in the test on HTT was < 100 nM in each case.

`Cc1nc2c(F)c(O)c(-c3ccc4nc(N5CCC(NC(C)C)C5)ccc4n3)cc2o1` (centres unmarked) [Compound 328, 4-fluoro-6-{6-[3-(isopropylamino)pyrrolidin-1-yl]-1,5-naphthyridin-2-yl}-2-methyl-1,3-benzoxazol-5-ol]: the IC50 in the test with Target C and with HTT was < 100 nM each time.

Regarding `CN[C@@H]1CCN(c2ccc3nc(-c4cc(F)c5nc(C)cn5c4)ncc3n2)C1` [Compound 331, (3R)-1-(2-{8-fluoro-2-methylimidazo[1,2-a]pyridin-6-yl}pyrido[3,2-d]pyrimidin-6-yl)-N-methylpyrrolidin-3-amine], the IC50 with Target C and in the test with HTT was 100 to 1000 nM in each case.

Turning to `CN[C@H]1CCN(c2ccc3nc(-c4cc(F)c5nc(C)cn5c4)ncc3n2)C1` [Compound 332, (S)-1-(2-(8-fluoro-2-methylimidazo[1,2-a]pyridin-6-yl)pyrido[3,2-d]pyrimidin-6-yl)-N-methylpyrrolidin-3-amine], the IC50 in the test on Target C and in the test with HTT was 100 to 1000 nM in each case.

What is called IC50 is the concentration at which inhibition is half-maximal.
